Laboratory results taken from ChEMBL document CHEMBL3885881, “DrugMatrix”.

Organism: Rattus norvegicus
Assay: DrugMatrix - Regimen: Daily Repeat
Format: toxicity, organism-based, Sprague-Dawley
Set-up: regimen Daily Repeat, gender Male, age 6-8 weeks
Conditions: in vivo, po, route oral GAVAGE, vehicle 100 % WATER; for ABSOLUTE BASOPHIL / ABSOLUTE EOSINOPHIL / ABSOLUTE LYMPHOCYTE / ABSOLUTE MONOCYTE / ABSOLUTE SEGMENTED NEUTROPHIL / BASOPHIL / EOSINOPHIL / ERYTHROCYTE COUNT / HEMATOCRIT / HEMOGLOBIN / LEUKOCYTE COUNT / LYMPHOCYTE / MEAN CORPUSCULAR HEMOGLOBIN / MEAN CORPUSCULAR HEMOGLOBIN CONCENTRATION / MEAN CORPUSCULAR VOLUME / MONOCYTE / NEUTROPHIL / NUCLEATED RED BLOOD CELLS / PLATELET COUNT: tissue Blood; for ALANINE AMINOTRANSFERASE / ALBUMIN / ALKALINE PHOSPHATASE / ASPARTATE AMINOTRANSFERASE / BLOOD UREA NITROGEN / CARBON DIOXIDE / CHLORIDE / CHOLESTEROL / CREATINE PHOSPHOKINASE / CREATININE / GLUCOSE / LACTATE DEHYDROGENASE / LIPASE / PHOSPHORUS / POTASSIUM / SODIUM / TOTAL BILIRUBIN / TOTAL PROTEIN / URIC ACID: tissue Plasma
[1] = 0 mg/kg, 72 h, dose level Control, time 3 day
[2] = 0 mg/kg, 120 h, dose level Control, time 5 day
[3] = 120 mg/kg, 72 h, dose level Low, time 3 day

## Nc1ccc(S(=O)(=O)Nc2ccnn2-c2ccccc2)cc1 [SULFAPHENAZOLE]
[1]
  ABSOLUTE BASOPHIL: 0 CELLS/uL
  ABSOLUTE EOSINOPHIL: 20.17 CELLS/uL
  ABSOLUTE LYMPHOCYTE: 12371.67 CELLS/uL
  ABSOLUTE MONOCYTE: 166 CELLS/uL
  ABSOLUTE SEGMENTED NEUTROPHIL: 1292.17 CELLS/uL
  BASOPHIL: 0%
  EOSINOPHIL: 0.17%
  ERYTHROCYTE COUNT: 5.46 x10E6/uL
  HEMATOCRIT: 34.38%
  HEMOGLOBIN: 13.32 G/DL
  LEUKOCYTE COUNT: 13.85 x10E3/uL
  LYMPHOCYTE: 88.5%
  MEAN CORPUSCULAR HEMOGLOBIN: 24.42 pg
  MEAN CORPUSCULAR HEMOGLOBIN CONCENTRATION: 38.7 G/DL
  MEAN CORPUSCULAR VOLUME: 63.07 fL
  MONOCYTE: 1.17%
  NEUTROPHIL: 10.17%
  NUCLEATED RED BLOOD CELLS: 0.17 /100WBC
  PLATELET COUNT: 1193.5 x10E3/uL
  ALANINE AMINOTRANSFERASE: 54.5 u/L
  ALBUMIN: 4.02 G/DL
  ALKALINE PHOSPHATASE: 346.5 u/L
  ASPARTATE AMINOTRANSFERASE: 103.17 u/L
  BLOOD UREA NITROGEN: 16.5 mg/dL
  CARBON DIOXIDE: 29.83 mmol/L
  CHLORIDE: 99.5 MEQ/L
  CHOLESTEROL: 72.5 mg/dL
  CREATINE PHOSPHOKINASE: 532.5 u/L
  CREATININE: 0.18 mg/dL
  GLUCOSE: 168.5 mg/dL
  LACTATE DEHYDROGENASE: 536.5 u/L
  LIPASE: 11.17 u/L
  PHOSPHORUS: 11.48 mg/dL
  POTASSIUM: 5.95 MEQ/L
  SODIUM: 140.5 MEQ/L
  TOTAL BILIRUBIN: 0.18 mg/dL
  TOTAL PROTEIN: 5.77 G/DL
  URIC ACID: 1.42 mg/dL
[2]
  ABSOLUTE BASOPHIL: 0 CELLS/uL
  ABSOLUTE EOSINOPHIL: 22.83 CELLS/uL
  ABSOLUTE LYMPHOCYTE: 12202.83 CELLS/uL
  ABSOLUTE MONOCYTE: 158 CELLS/uL
  ABSOLUTE SEGMENTED NEUTROPHIL: 1283 CELLS/uL
  BASOPHIL: 0%
  EOSINOPHIL: 0.17%
  ERYTHROCYTE COUNT: 5.88 x10E6/uL
  HEMATOCRIT: 36.62%
  HEMOGLOBIN: 14.07 G/DL
  LEUKOCYTE COUNT: 13.67 x10E3/uL
  LYMPHOCYTE: 89.5%
  MEAN CORPUSCULAR HEMOGLOBIN: 23.95 pg
  MEAN CORPUSCULAR HEMOGLOBIN CONCENTRATION: 38.43 G/DL
  MEAN CORPUSCULAR VOLUME: 62.28 fL
  MONOCYTE: 1.17%
  NEUTROPHIL: 9.17%
  NUCLEATED RED BLOOD CELLS: 0.17 /100WBC
  PLATELET COUNT: 1198 x10E3/uL
  ALANINE AMINOTRANSFERASE: 51 u/L
  ALBUMIN: 4.3 G/DL
  ALKALINE PHOSPHATASE: 343 u/L
  ASPARTATE AMINOTRANSFERASE: 89.83 u/L
  BLOOD UREA NITROGEN: 17.67 mg/dL
  CARBON DIOXIDE: 27.17 mmol/L
  CHLORIDE: 98.33 MEQ/L
  CHOLESTEROL: 82.5 mg/dL
  CREATINE PHOSPHOKINASE: 533.33 u/L
  CREATININE: 0.18 mg/dL
  GLUCOSE: 152.67 mg/dL
  LACTATE DEHYDROGENASE: 220.33 u/L
  LIPASE: 11.5 u/L
  PHOSPHORUS: 11.25 mg/dL
  POTASSIUM: 6.29 MEQ/L
  SODIUM: 140.53 MEQ/L
  TOTAL BILIRUBIN: 0.22 mg/dL
  TOTAL PROTEIN: 6.12 G/DL
  URIC ACID: 1.42 mg/dL
[3]
  ABSOLUTE BASOPHIL: 0 CELLS/uL
  ABSOLUTE EOSINOPHIL: 0 CELLS/uL
  ABSOLUTE LYMPHOCYTE: 13809.67 CELLS/uL
  ABSOLUTE MONOCYTE: 111 CELLS/uL
  ABSOLUTE SEGMENTED NEUTROPHIL: 1579.33 CELLS/uL
  BASOPHIL: 0%
  EOSINOPHIL: 0%
  ERYTHROCYTE COUNT: 5.26 x10E6/uL
  HEMATOCRIT: 32.3%
  HEMOGLOBIN: 13 G/DL
  LEUKOCYTE COUNT: 15.5 x10E3/uL
  LYMPHOCYTE: 88.67%
  MEAN CORPUSCULAR HEMOGLOBIN: 24.77 pg
  MEAN CORPUSCULAR HEMOGLOBIN CONCENTRATION: 40.33 G/DL
  MEAN CORPUSCULAR VOLUME: 61.43 fL
  MONOCYTE: 0.67%
  NEUTROPHIL: 10.67%
  NUCLEATED RED BLOOD CELLS: 0 /100WBC
  PLATELET COUNT: 1150 x10E3/uL
  ALANINE AMINOTRANSFERASE: 66 u/L
  ALBUMIN: 3.9 G/DL
  ALKALINE PHOSPHATASE: 348.67 u/L
  ASPARTATE AMINOTRANSFERASE: 94.33 u/L
  BLOOD UREA NITROGEN: 14 mg/dL
  CARBON DIOXIDE: 29.33 mmol/L
  CHLORIDE: 97.67 MEQ/L
  CHOLESTEROL: 74.67 mg/dL
  CREATINE PHOSPHOKINASE: 287.67 u/L
  CREATININE: 0.15 mg/dL
  GLUCOSE: 149.33 mg/dL
  LACTATE DEHYDROGENASE: 195.67 u/L
  LIPASE: 10 u/L
  PHOSPHORUS: 11.53 mg/dL
  POTASSIUM: 6.01 MEQ/L
  SODIUM: 140.83 MEQ/L
  TOTAL BILIRUBIN: 0.17 mg/dL
  TOTAL PROTEIN: 5.63 G/DL
  URIC ACID: 1.33 mg/dL
